Source: PubChem BioAssay AID256 (DTP/NCI, 2004)
“And” between values parts separate entries of the source, which are not always exact repeats. Equal entries are not always repeated. Inconclusive results and toxic doses are left out. The calls were made as follows: active = survival T/C of 150% or more; inactive = T/C below 125% in these data. Starred links: 1 amine or outer side, 2 acyl side, 3 side chain; linkers in the order of their positions; H or OH if unused. Non-standard residues stand in square brackets, D forms with d. Residues, ends and D or L forms follow the SMILES beside them. *: point of attachment. X2 = CCC(=O)CC1CC(C)CC(C(=O)[*:2])N1[*:1]; X1 = CCCCCCCCC(C)C(=O)*; Aib = CC(C)(N)C(=O)O; X3 = CC(CN(C)CCO)N*

System: CD2F1 mice, L1210 leukemia ip, survival T/C
Test: NCI In Vivo Anticancer Drug Screen. Data for tumor model L1210 Leukemia (intraperitoneal) in CD2F1 (CDF1) mice
Details: higher = longer survival
How it was run: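 Activity against a transplanted murine tumor was judged by comparing the compound group with a vehicle group. The outcome in the treated animals was divided by that in the controls.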

[1] = endpoint: mean survival time, dose: 6.25 mg/kg/injection, schedule: Q01DX009 (ip), vehicle: Klucel (hydroxypropylcellulose) (HPC)
[2] = endpoint: mean survival time, dose: 12.5 mg/kg/injection, schedule: Q01DX009 (ip), vehicle: Klucel (hydroxypropylcellulose) (HPC)
[3] = endpoint: mean survival time, dose: 25.0 mg/kg/injection, schedule: Q01DX009 (ip), vehicle: Klucel (hydroxypropylcellulose) (HPC)
[4] = endpoint: mean survival time, dose: 100.0 mg/kg/injection, schedule: Q04DX002 (ip), vehicle: saline with Tween-80
[5] = endpoint: mean survival time, dose: 200.0 mg/kg/injection, schedule: Q04DX002 (ip), vehicle: saline with Tween-80
[6] = endpoint: mean survival time, dose: 400.0 mg/kg/injection, schedule: Q04DX002 (ip), vehicle: saline with Tween-80
[7] = endpoint: mean survival time, dose: 25.0 mg/kg/injection, schedule: Q01DX009 (ip), vehicle: saline with Tween-80
[8] = endpoint: mean survival time, dose: 50.0 mg/kg/injection, schedule: Q01DX009 (ip), vehicle: saline with Tween-80
[9] = endpoint: mean survival time, dose: 100.0 mg/kg/injection, schedule: Q01DX009 (ip), vehicle: saline with Tween-80
[10] = endpoint: mean survival time, dose: 100.0 mg/kg/injection, schedule: Q01DX001 (ip), vehicle: saline with Tween-80
[11] = endpoint: mean survival time, dose: 200.0 mg/kg/injection, schedule: Q01DX001 (ip), vehicle: saline with Tween-80

Measured: T/C

Cc1ncc([N+](=O)[O-])n1CCO
inactive: endpoint: mean survival time, dose: 37.5 mg/kg/injection, schedule: Q01DX009 (ip), vehicle: Klucel (hydroxypropylcellulose) (HPC) 109 % of control | endpoint: mean survival time, dose: 37.5 mg/kg/injection, schedule: Q04DX003 (ip), vehicle: Klucel (hydroxypropylcellulose) (HPC) 98 % of control | endpoint: mean survival time, dose: 75.0 mg/kg/injection, schedule: Q01DX009 (ip), vehicle: Klucel (hydroxypropylcellulose) (HPC) 104 % of control | endpoint: mean survival time, dose: 75.0 mg/kg/injection, schedule: Q04DX003 (ip), vehicle: Klucel (hydroxypropylcellulose) (HPC) 103 % of control | endpoint: mean survival time, dose: 150.0 mg/kg/injection, schedule: Q01DX009 (ip), vehicle: Klucel (hydroxypropylcellulose) (HPC) 103 % of control | endpoint: mean survival time, dose: 150.0 mg/kg/injection, schedule: Q04DX003 (ip), vehicle: Klucel (hydroxypropylcellulose) (HPC) 104 % of control | endpoint: mean survival time, dose: 300.0 mg/kg/injection, schedule: Q01DX009 (ip), vehicle: Klucel (hydroxypropylcellulose) (HPC) 107 % of control | endpoint: mean survival time, dose: 300.0 mg/kg/injection, schedule: Q04DX003 (ip), vehicle: Klucel (hydroxypropylcellulose) (HPC) 97 % of control | endpoint: mean survival time, dose: 600.0 mg/kg/injection, schedule: Q01DX009 (ip), vehicle: Klucel (hydroxypropylcellulose) (HPC) 92 % of control | endpoint: mean survival time, dose: 600.0 mg/kg/injection, schedule: Q04DX003 (ip), vehicle: Klucel (hydroxypropylcellulose) (HPC) 98 % of control

O=c1[nH]c2ccccc2c2ccccc2[nH]c(=O)c2ccccc12
inactive: endpoint: mean survival time, dose: 100.0 mg/kg/injection, schedule: Q01DX001 (ip), vehicle: Klucel (hydroxypropylcellulose) (HPC) 98 % of control | endpoint: mean survival time, dose: 200.0 mg/kg/injection, schedule: Q01DX001 (ip), vehicle: Klucel (hydroxypropylcellulose) (HPC) 102 % of control | endpoint: mean survival time, dose: 400.0 mg/kg/injection, schedule: Q01DX001 (ip), vehicle: Klucel (hydroxypropylcellulose) (HPC) 102 % of control

Cc1cc2ccc(Cl)cc2[nH]1
inactive: endpoint: mean survival time, dose: 100.0 mg/kg/injection, schedule: Q01DX001 (ip), vehicle: other 104 % of control | endpoint: mean survival time, dose: 200.0 mg/kg/injection, schedule: Q01DX001 (ip), vehicle: other 104 % of control

COc1cc(C=Nc2cc(Cl)ccc2-n2ccnc2C)ccc1N(CCCl)CCCl
inactive: endpoint: mean survival time, dose: 12.5 mg/kg/injection, schedule: Q04DX003 (ip), vehicle: saline with Tween-80 117 % of control | endpoint: mean survival time, dose: 25.0 mg/kg/injection, schedule: Q04DX003 (ip), vehicle: saline with Tween-80 113 % of control | endpoint: mean survival time, dose: 50.0 mg/kg/injection, schedule: Q04DX003 (ip), vehicle: saline with Tween-80 118 % of control | endpoint: mean survival time, dose: 200.0 mg/kg/injection, schedule: Q04DX003 (ip), vehicle: saline with Tween-80 115 % of control | endpoint: mean survival time, dose: 400.0 mg/kg/injection, schedule: Q04DX003 (ip), vehicle: saline with Tween-80 89 % of control

COc1ccc2[nH]c3c(c2c1)CCNC3CC(C)CCC=C(C)C (stereo not drawn)
inactive: [1] 100 % of control and 110 % of control | [2] 98 % of control and 102 % of control | [3] 97 % of control and 101 % of control | endpoint: mean survival time, dose: 50.0 mg/kg/injection, schedule: Q01DX009 (ip), vehicle: Klucel (hydroxypropylcellulose) (HPC) 100 % of control and 103 % of control | endpoint: mean survival time, dose: 100.0 mg/kg/injection, schedule: Q01DX009 (ip), vehicle: Klucel (hydroxypropylcellulose) (HPC) 86 % of control and 100 % of control | endpoint: mean survival time, dose: 200.0 mg/kg/injection, schedule: Q01DX009 (ip), vehicle: Klucel (hydroxypropylcellulose) (HPC) 108 % of control

C=CCCC(=O)CCCC(=O)O[C@@H]1[C@@H]2[C@H](CC1(C)C)[C@H](O)[C@@]13O[C@@H]1[C@H](O)[C@@]1(CO1)[C@@]23C
inactive: endpoint: mean survival time, dose: 6.2 micrograms/kg/injection, schedule: Q01DX009 (ip), vehicle: saline 95 % of control | endpoint: mean survival time, dose: 12.5 micrograms/kg/injection, schedule: Q01DX009 (ip), vehicle: saline 89 % of control | endpoint: mean survival time, dose: 25.0 micrograms/kg/injection, schedule: Q01DX009 (ip), vehicle: saline 95 % of control | endpoint: mean survival time, dose: 50.0 micrograms/kg/injection, schedule: Q01DX009 (ip), vehicle: saline 97 % of control | endpoint: median survival time, dose: 25.0 micrograms/kg/injection, schedule: Q01DX009 (ip), vehicle: Klucel (hydroxypropylcellulose) (HPC) 101 % of control | endpoint: median survival time, dose: 50.0 micrograms/kg/injection, schedule: Q01DX009 (ip), vehicle: Klucel (hydroxypropylcellulose) (HPC) 101 % of control | endpoint: median survival time, dose: 100.0 micrograms/kg/injection, schedule: Q01DX009 (ip), vehicle: Klucel (hydroxypropylcellulose) (HPC) 100 % of control | endpoint: median survival time, dose: 200.0 micrograms/kg/injection, schedule: Q01DX009 (ip), vehicle: Klucel (hydroxypropylcellulose) (HPC) 94 % of control | endpoint: median survival time, dose: 400.0 micrograms/kg/injection, schedule: Q01DX009 (ip), vehicle: Klucel (hydroxypropylcellulose) (HPC) 97 % of control

O=C1C(C2CC3c4[nH]c5ccccc5c4CCN3C2=O)CC2c3[nH]c4ccccc4c3CCN12 (stereo not drawn)
inactive: [4] 93 % of control | [5] 93 % of control | [6] 93 % of control

CCNC1(c2ccccc2)CCCCC1
inactive: endpoint: mean survival time, dose: 25.0 mg/kg/injection, schedule: Q04DX003 (ip), vehicle: saline 105 % of control

O=S(=O)(O)O.[Ga]
inactive: [7] 120 % of control | [8] 117 % of control | [9] 90 % of control

CCC(=O)c1ccc(O)c(O)c1
inactive: [7] 95 % of control | [8] 96 % of control | [9] 96 % of control and 100 % of control | endpoint: mean survival time, dose: 100.0 mg/kg/injection, schedule: Q04DX003 (ip), vehicle: saline 96 % of control | endpoint: mean survival time, dose: 200.0 mg/kg/injection, schedule: Q04DX003 (ip), vehicle: saline 105 % of control | endpoint: mean survival time, dose: 400.0 mg/kg/injection, schedule: Q04DX003 (ip), vehicle: saline 92 % of control

COc1ccc(NC(C)=O)c(O)c1OC
inactive: [10] 95 % of control | [4] 103 % of control | [11] 92 % of control | [5] 106 % of control | endpoint: mean survival time, dose: 400.0 mg/kg/injection, schedule: Q01DX001 (ip), vehicle: saline with Tween-80 95 % of control | [6] 98 % of control

CCC1=C[C@H]2CN(CCc3c([nH]c4ccccc34)[C@@](C(=O)OC)(c3cc4c(cc3OC)N(C)[C@H]3[C@@](O)(C(=O)NC)[C@H](OC(C)=O)[C@]5(CC)C=CCN6CC[C@]43[C@@H]65)C2)C1
inactive: endpoint: mean survival time, dose: 0.03 mg/kg/injection, schedule: Q01DX009 (ip), vehicle: water 101 % of control | endpoint: mean survival time, dose: 0.06 mg/kg/injection, schedule: Q01DX009 (ip), vehicle: water 111 % of control

COC(=O)C#CC(N)=O
inactive: endpoint: mean survival time, dose: 1.25 mg/kg/injection, schedule: Q01DX009 (ip), vehicle: saline sonified 106 % of control | endpoint: mean survival time, dose: 2.5 mg/kg/injection, schedule: Q01DX009 (ip), vehicle: saline sonified 109 % of control | endpoint: mean survival time, dose: 5.0 mg/kg/injection, schedule: Q01DX009 (ip), vehicle: saline sonified 113 % of control | endpoint: mean survival time, dose: 5.0 mg/kg/injection, schedule: Q04DX003 (ip), vehicle: saline sonified 110 % of control

COc1c2c(cc3c1C(O)N(C)CC3)OCO2 (stereo not drawn)
inactive: endpoint: mean survival time, dose: 75.0 mg/kg/injection, schedule: Q01DX001 (ip), vehicle: saline 100 % of control | endpoint: mean survival time, dose: 150.0 mg/kg/injection, schedule: Q01DX001 (ip), vehicle: saline 110 % of control

CCCCCCCCC(C)C(=O)N1CCCC1C(=O)N1C(CC(=O)CC)CC(C)CC1C(=O)NC(C)C(=O)NC(C)(C)C(=O)NC(C)(C)C(=O)NC(C(=O)NC(C)C(=O)NC(C)(C)C(=O)NC(C)(C)C(=O)NC(C)CN(C)CCO)C(C)CC (stereo not drawn) (X1-P[X2]A[Aib][Aib]IA[Aib][Aib]-X3; configuration not given here)
inactive: endpoint: mean survival time, dose: 0.15 mg/kg/injection, schedule: Q01DX009 (ip), vehicle: Klucel (hydroxypropylcellulose) (HPC) 110 % of control | endpoint: mean survival time, dose: 0.31 mg/kg/injection, schedule: Q01DX009 (ip), vehicle: Klucel (hydroxypropylcellulose) (HPC) 111 % of control and 112 % of control | endpoint: mean survival time, dose: 0.62 mg/kg/injection, schedule: Q01DX009 (ip), vehicle: Klucel (hydroxypropylcellulose) (HPC) 115 % of control and 104 % of control | endpoint: mean survival time, dose: 1.25 mg/kg/injection, schedule: Q01DX009 (ip), vehicle: Klucel (hydroxypropylcellulose) (HPC) 122 % of control and 108 % of control | endpoint: mean survival time, dose: 2.5 mg/kg/injection, schedule: Q01DX009 (ip), vehicle: Klucel (hydroxypropylcellulose) (HPC) 115 % of control and 117 % of control | endpoint: mean survival time, dose: 5.0 mg/kg/injection, schedule: Q01DX009 (ip), vehicle: Klucel (hydroxypropylcellulose) (HPC) 103 % of control

O=C(CCl)NC12Nc3ccccc3C1(Cc1ccccc1)CN(C1CCCCC1)C2=O (stereo not drawn)
inactive: endpoint: mean survival time, dose: 50.0 mg/kg/injection, schedule: Q04DX002 (ip), vehicle: saline with Tween-80 95 % of control | [10] 100 % of control | [11] 86 % of control | [5] 89 % of control

c1ccc(CCCNc2nnnc3ccccc23)cc1
inactive: [4] 95 % of control | [5] 103 % of control | [6] 91 % of control

COC1C(O)=C2C(=O)OC(C)(O)/C=C/C=C\C=C/C=C/C(c3ccccc3)NC(=O)/C=C/C=C/C=C/C=C/C2(C)C1O (stereo not drawn)
inactive: [1] 106 % of control | [2] 95 % of control | [3] 103 % of control
